# How the values were obtained:
# α-tocopheroxyl radical = assay: Tocopheroxyl radical attenuating ability (TRAA); type: biochemical; conditions: kobs with (+) or without (−) test compound
# [1] = tested on: tocopherol-mediated peroxidation (TMP); assay: Anti-TMP index; type: biochemical
# [2] = tested on: New Zealand White rabbits with arterial balloon injury; assay: Liver function (serum AST, ALT, GGT); type: in vivo; conditions: for Serum ALT / Serum AST / Serum GGT: 0.02% PDA474
# Protocol: (§1) Twelve rabbits were initially fed standard rabbit chow ad libitum for two weeks, before commencement of the nine weeks intervention study. Six rabbits were fed 100 g per day of standard rabbit chow without (control) or with 0.02% PDA474. At the end of week three, the abdominal aorta and right iliac artery were injured by inserting a 3F Fogarty catheter into the right femoral artery and advancing it by about 25 cm to a position just above the diaphragm. The balloon was then inflated with 0.2 mL of saline, and the catheter pulled back three times. Following injury rabbits were placed back onto their respective diet for another six weeks. During the nine weeks, blood was taken from the marginal ear vein of non-fasted rabbits each week for measuring plasma PDA474 and its metabolites. At the end of week nine, the aorta, iliofemoral arteries and a portion of various tissues (liver, kidney, heart, muscle, spleen and abdominal fat) were harvested.
# [3] = PDA474 and metabolite levels in plasma, aorta and major tissues; type: in vivo, New Zealand White rabbits
# Protocol: as §1
# [4] = tested on: cGMP production by aortic rings; assay: cGMP in homogenates of aortic rings (radioimmunoassay); type: in vivo, New Zealand White rabbits; conditions: aortic rings of PDA474-treated rabbits, 1 μM ACh
# Protocol: cGMP in the homogenates of aortic ring was determined by a specific radioimmunoassay. […] SNP (1 μM) was used as a positive and buffer vehicle as a negative control. The cGMP content was then determined as described in the commercial assay kit (Cayman Chemical), and results expressed per tissue weight or protein.
# [5] = tested on: intimal thickening in rabbit aorta after arterial balloon injury; assay: Histological evaluation of aortic lesion formation after arterial balloon injury; type: in vivo, New Zealand White rabbits; conditions: rabbits, 0.02% PDA474, six weeks after ABI
# Protocol: as §1
# The lower abdominal aorta and iliofemeral arteries were pre-perfusion-fixed with 4% buffered formalin at a constant physiological pressure (˜100 mmHg) before removal and placement in 4% buffered formalin for further fixation for 12 h at room temperature. Two parts of the abdominal aorta were taken for lesion assessment. One part (referred to as A1) was located just above 3rd lumber artery close to the lumber branches, and the other part (referred to as A3) represented the central part between 3rd and 4th lumber arteries, where there are few branches. A1 and A3 specimens were embedded in paraffin and two sections (200 μm apart) were taken from each specimen and stained with Verhoeff hematoxylin.
# The intima, media and intima/media ratio (IMR) were calculated by tracing the intimal and medial areas and determining their respective total pixel numbers. High IMR indicate large lesions. In addition, the perimeter of the external elastic lamina and the lumen were quantified using Scion Image Software to assess the extent of vessel remodeling.
# [6] = tested on: abdominal aortic rings of balloon-injured rabbits; assay: Aortic ring study (response to NE, ACh, SNP); type: in vivo, New Zealand White rabbits
# From the text: Following the intervention, the abdominal aorta was removed carefully, cleared of adhering fat and connective tissue, and then cut into 2 mm-wide transverse rings just under second lumbar artery (about 9 cm distal to the common iliac artery and about 5 cm below the celiac artery). This portion of the aorta contains few branches. […] Before the start of the experiments, aortic rings were allowed to equilibrate for one hour under a resting tension of 2.5 g, followed by three washes and re-equilibration of the rings between addition of drugs inducing vaso-response. At the end of each experiment, the aortic ring was weight. The vascular function was assessed in three parts:
# 2) The response to the endothelium-dependent vasodilator, acetylcholine (ACh). Rings were pre-constricted with PE corresponding to a dose that gave half-maximum contraction (EC50) as calculated from the dose-response curve to NE. ACh (10^−9-10^−5 M) was added after reaching a constant contriction.
# 3) The response to the endothelium-independent vasodilator, sodium nitroprusside (SNP) (10^−9-10^−5 M) was determined to assess vascular smooth muscle cell function.
# [7] = tested on: New Zealand White rabbits with arterial balloon injury; assay: Serum and plasma lipid profile and antioxidants; type: in vivo
# Protocol: as §1
# [8] = 0.02% PDA474, Week 0 (baseline)
molecule,measurement,setting,value
Cc1cc(C(C)(C)C)c(O)c(C(C)(C)C)c1 [BHT],TRAA (decay of tocopheroxyl radical; kobs(+)/kobs(−)),α-tocopheroxyl radical,Immediate decay
same,Anti-TMP index,[1],8-10
diphenoquinone [H 330/68],TRAA (decay of tocopheroxyl radical; kobs(+)/kobs(−)),α-tocopheroxyl radical,kobs(+)/kobs(−)˜1
same,Anti-TMP index,[1],100
CC(C)(C)c1cc(SSc2cc(C(C)(C)C)c(O)c(C(C)(C)C)c2)cc(C(C)(C)C)c1O [PDA474],Serum ALT,[2]; Week 0 (baseline),51.17 ± 3.08 U/L
same,Serum AST,[2]; Week 0 (baseline),28.17 ± 2.65 U/L
same,Serum GGT,[2]; Week 0 (baseline),11.50 ± 1.06 U/L
same,Serum ALT,[2]; Week 3 (ABI),76.00 ± 8.13 U/L
same,Serum AST,[2]; Week 3 (ABI),63.33 ± 23.47 U/L
same,Serum GGT,[2]; Week 3 (ABI),12.33 ± 2.29 U/L
same,Serum ALT,[2]; Week 6,72.83 ± 5.19 U/L
same,Serum AST,[2]; Week 6,33.83 ± 8.79 U/L
same,Serum GGT,[2]; Week 6,13.67 ± 0.76 U/L
same,Serum ALT,[2]; Week 9 (cull),100.67 ± 10.43 U/L
same,Serum AST,[2]; Week 9 (cull),69.67 ± 14.34 U/L
same,Serum GGT,[2]; Week 9 (cull),12.33 ± 0.99 U/L
same,effect on liver function,"[2]; rabbits, 0.02% PDA474, 9 weeks",did not affect liver function
same,Fat PDA474 level,"[3]; 0.02% PDA474, 9 weeks, abdominal fat",1.99 ± 0.40 nmol/mg P
same,Aorta PDA474 level,"[3]; 0.02% PDA474, 9 weeks, aorta",0.59 ± 0.12 nmol/mg P
same,Heart PDA474 level,"[3]; 0.02% PDA474, 9 weeks, heart",0.65 ± 0.43 nmol/mg P
same,Kidney PDA474 level,"[3]; 0.02% PDA474, 9 weeks, kidney",0.26 ± 0.06 nmol/mg P
same,Liver PDA474 level,"[3]; 0.02% PDA474, 9 weeks, liver",7.30 ± 2.82 nmol/mg P
same,Muscle PDA474 level,"[3]; 0.02% PDA474, 9 weeks, muscle",0.17 ± 0.06 nmol/mg P
same,Spleen PDA474 level,"[3]; 0.02% PDA474, 9 weeks, spleen",0.30 ± 0.13 nmol/mg P
same,concentration at 9 weeks,"[3]; New Zealand White, rabbit, oral, 0.02 % in chow, rabbits, 0.02% PDA474 in chow, 9 weeks, plasma, read-out: Plasma PDA474 level",370 ± 40 nM
same,time until plasma concentrations of PDA474 reached steady state,"[3]; rabbits, chow with 0.02% PDA474",1˜2 weeks
same,amount of the administered PDA474 reaching the circulation,"[3]; rabbits, chow with 0.02% PDA474, estimated",< 1%
same,tissue cGMP concentrations in response to ACh vs control,[4],significantly increased
same,"intima-to-media ratio (IMR), Section A1 of the abdominal aorta, vs control",[5],significantly lower
same,media areas of abdominal aorta vs control,[5],significantly increased
same,"vascular remodeling (lumen area, EEL perimeter)",[5],did not affect
same,muscle tone (g/mg tissue) vs control aortic rings,"[6]; NE-induced constriction, PDA474-treated rabbits",nearly twice as high
same,SNP-induced relaxation vs control,[6]; rings from PDA474-treated rabbits,comparable
same,ACh-induced relaxation of aortic rings,"[6]; rings from PDA474-treated rabbits, pre-constricted with NE at EC50, maximal response at ˜10^−5M ACh",61 % relaxation
same,NE-induced constriction of abdominal aortic rings vs control,[6]; rings from balloon-injured rabbits fed 0.02% PDA474,significantly increased
same,Plasma Ascorbate,[7]; [8],34.56 ± 4.36 µmol/L
same,Plasma Ch18:2,[7]; [8],0.19 ± 0.02 mmol/L
same,Plasma Ch20:2,[7]; [8],0.01 ± 0.00 mmol/L
same,Plasma Free Chol,[7]; [8],0.49 ± 0.05 mmol/L
same,Plasma Total Chol,[7]; [8],0.69 ± 0.07 mmol/L
same,Plasma Urate,[7]; [8],5.56 ± 0.43 µmol/L
same,Plasma a-TOH,[7]; [8],4.40 ± 0.24 µmol/L
same,Serum HDL Chol,[7]; [8],0.58 ± 0.07 mmol/L
same,Serum Triglycerides,[7]; [8],0.95 ± 0.11 mmol/L
same,Plasma Ascorbate,"[7]; 0.02% PDA474, Week 3 (ABI)",44.01 ± 5.29 µmol/L
same,Plasma Ch18:2,"[7]; 0.02% PDA474, Week 3 (ABI)",0.19 ± 0.02 mmol/L
same,Plasma Ch20:2,"[7]; 0.02% PDA474, Week 3 (ABI)",0.08 ± 0.00 mmol/L
same,Plasma Free Chol,"[7]; 0.02% PDA474, Week 3 (ABI)",0.42 ± 0.03 mmol/L
same,Plasma Total Chol,"[7]; 0.02% PDA474, Week 3 (ABI)",0.62 ± 0.03 mmol/L
same,Plasma Urate,"[7]; 0.02% PDA474, Week 3 (ABI)",5.86 ± 0.65 µmol/L
same,Plasma a-TOH,"[7]; 0.02% PDA474, Week 3 (ABI)",5.02 ± 0.50 µmol/L
same,Serum Cholesterol,"[7]; 0.02% PDA474, Week 3 (ABI)",0.77 ± 0.14 mmol/L
same,Serum HDL Chol,"[7]; 0.02% PDA474, Week 3 (ABI)",0.50 ± 0.09 mmol/L
same,Serum Triglycerides,"[7]; 0.02% PDA474, Week 3 (ABI)",0.98 ± 0.15 mmol/L
same,Plasma Ch18:2,"[7]; 0.02% PDA474, Week 6",0.25 ± 0.10 mmol/L
same,Plasma Ch20:2,"[7]; 0.02% PDA474, Week 6",0.02 ± 0.01 mmol/L
same,Plasma Free Chol,"[7]; 0.02% PDA474, Week 6",0.43 ± 0.11 mmol/L
same,Plasma Total Chol,"[7]; 0.02% PDA474, Week 6",0.70 ± 0.21 mmol/L
same,Plasma a-TOH,"[7]; 0.02% PDA474, Week 6",4.76 ± 0.64 µmol/L
same,Serum Cholesterol,"[7]; 0.02% PDA474, Week 6",1.15 ± 0.51 mmol/L
same,Serum HDL Chol,"[7]; 0.02% PDA474, Week 6",0.51 ± 0.15 mmol/L
same,Serum Triglycerides,"[7]; 0.02% PDA474, Week 6",0.93 ± 0.08 mmol/L
same,Plasma Ascorbate,"[7]; 0.02% PDA474, Week 9 (cull)",46.51 ± 5.49 µmol/L
same,Plasma Ch18:2,"[7]; 0.02% PDA474, Week 9 (cull)",0.16 ± 0.02 mmol/L
same,Plasma Ch20:2,"[7]; 0.02% PDA474, Week 9 (cull)",0.04 ± 0.00 mmol/L
same,Plasma Free Chol,"[7]; 0.02% PDA474, Week 9 (cull)",0.30 ± 0.03 mmol/L
same,Plasma Total Chol,"[7]; 0.02% PDA474, Week 9 (cull)",0.46 ± 0.04 mmol/L
same,Plasma Urate,"[7]; 0.02% PDA474, Week 9 (cull)",5.24 ± 1.25 µmol/L
same,Plasma a-TOH,"[7]; 0.02% PDA474, Week 9 (cull)",3.60 ± 0.31 µmol/L
same,Serum Cholesterol,"[7]; 0.02% PDA474, Week 9 (cull)",0.67 ± 0.06 mmol/L
same,Serum HDL Chol,"[7]; 0.02% PDA474, Week 9 (cull)",0.42 ± 0.04 mmol/L
same,Serum Triglycerides,"[7]; 0.02% PDA474, Week 9 (cull)",0.97 ± 0.13 mmol/L
same,hypocholesterolemic effect,"[7]; rabbits, 0.02% PDA474, 9 weeks",no hypocholesterolemic effect
same,Serum Cholesterol,"[7]; rabbits, chow with 0.02% PDA474, Week 0 (baseline)",1.13 ± 0.15 mmol/L

# From patent publication US20020115728A1, “Compositions and methods for treating cardiovascular disorders” (priority 2000, published 2002)
